Assay results from the supplement of paper PMC13380429.
± gives the standard deviation of the averaged measurements.

Legend:
Conditions in all cases: 72 h
[1] = test system: HepG2; test: relative viability EC50 (midpoint between 100% and the lowest measured viability); higher = less toxic
[2] = test system: U2OS; test: as above
[3] = test system: Calu-3; test: as above
[4] = test system: Vero E6; test: as above
[5] = test system: Caco-2; test: as above
[6] = test system: HepG2; test: drug sensitivity score (DSS) for viability; higher = more toxic; extreme values may be limits of the assay
[7] = test system: U2OS; test: as above
[8] = test system: Calu-3; test: as above
[9] = test system: Vero E6; test: as above
[10] = test system: Caco-2; test: as above
[11] = test system: HepG2; test: cell viability relative to DMSO; higher = less toxic
[12] = test system: U2OS; test: as above
[13] = test system: Calu-3; test: as above
[14] = test system: Vero E6; test: as above
[15] = test system: Caco-2; test: as above

Structure (SMILES) | relative viability EC50 [1] | relative viability EC50 [2] | relative viability EC50 [3] | relative viability EC50 [4] | relative viability EC50 [5] | drug sensitivity score [6] | drug sensitivity score [7] | drug sensitivity score [8] | drug sensitivity score [9] | drug sensitivity score [10] | cell viability ([11]; 1 nM) | cell viability ([11]; 10 nM) | cell viability ([11]; 100 nM) | cell viability ([11]; 1000 nM) | cell viability ([11]; 10000 nM) | cell viability ([12]; 1 nM) | cell viability ([12]; 10 nM) | cell viability ([12]; 100 nM) | cell viability ([12]; 1000 nM) | cell viability ([12]; 10000 nM) | cell viability ([13]; 1 nM) | cell viability ([13]; 10 nM) | cell viability ([13]; 100 nM) | cell viability ([13]; 1000 nM) | cell viability ([13]; 10000 nM) | cell viability ([14]; 1 nM) | cell viability ([14]; 10 nM) | cell viability ([14]; 100 nM) | cell viability ([14]; 1000 nM) | cell viability ([14]; 10000 nM) | cell viability ([15]; 1 nM) | cell viability ([15]; 10 nM) | cell viability ([15]; 100 nM) | cell viability ([15]; 1000 nM) | cell viability ([15]; 10000 nM)
CCCNC(=O)Nc1ccc(Oc2ncnc3cc(OC)c(OC)cc23)cc1Cl [KRN-633] | > 10 µM | > 10 µM | > 10 µM | > 10 µM | > 10 µM | 0 | 0 | 0 | 0 | 0 | 103% | 90.5% | 100% | 92.1% | 94.5% | 96.8% | 97.7% | 96% | 97% | 93.4% | 100% | 101% | 95.4% | 101% | 97.4% | 101% | 103% | 104% | 105% | 99.2% | 92.8% | 98.5% | 86.6% | 93% | 90.8%
CC(=O)OCC(=O)[C@@]12OC(C)(C)O[C@@H]1C[C@H]1[C@@H]3C[C@H](F)C4=CC(=O)C=C[C@]4(C)[C@@]3(F)[C@@H](O)C[C@@]12C [fluocinonide] | > 10 µM | > 10 µM | > 10 µM | > 10 µM | > 10 µM | 0 | 0 | 0 | 0 | 0 | 100 ± 2.5% | 95.5 ± 6% | 101 ± 8.3% | 104 ± 1.2% | 100 ± 6.2% | 98.5 ± 1.5% | 96 ± 3.3% | 95.2 ± 1.4% | 96.7 ± 4.4% | 98.7 ± 4.3% | 102 ± 7.5% | 97.2 ± 6% | 87.8 ± 1.1% | 98.2 ± 3.8% | 101 ± 3.7% | 101 ± 7.7% | 93.6 ± 0.57% | 97.9 ± 13% | 96.7 ± 5.4% | 98.5 ± 2.8% | 91.5% | 95.6% | 93.8% | 104% | 99.2%
O=C(CN1CCN(Cc2ccc3c(c2)OCO3)CC1)N1c2ccccc2Sc2ccccc21 [fenoverine] | > 10 µM | > 10 µM | > 10 µM | > 10 µM | > 10 µM | 0 | 0 | 0 | 0 | 0.6 | 94.6% | 104% | 101% | 90% | 90.3% | 95.1% | 97.2% | 98.1% | 94.9% | 96.7% | 92.8% | 109% | 99.2% | 103% | 110% | 87.4% | 98.2% | 98.4% | 95% | 84.7% | 106% | 110% | 105% | 98.5% | 82.7%
CC(C)=CCC/C(C)=C/CC/C(C)=C/CCC(=O)OC/C=C(\C)CCC=C(C)C [geranyl-farnesylacetate] | > 10 µM | > 10 µM | > 10 µM | > 10 µM | > 10 µM | 0 | 0 | 0 | 0 | 0 | 101% | 107% | 90.8% | 112% | 110% | 98.4% | 95.3% | 102% | 96.7% | 103% | 99.1% | 94.6% | 96.8% | 93% | 96.4% | 104% | 102% | 94.4% | 105% | 115% | 95.6% | 95.8% | 106% | 91.4% | 98.9%
Cc1c(F)cc(C(=O)NC2CC2)cc1-c1c(F)cn2c(C(C)(C)C)nnc2c1F [AL-8697] | > 10 µM | > 10 µM | > 10 µM | > 10 µM | > 10 µM | 0 | 0 | 0 | 1.4 | 0 | 96.5% | 105% | 90.9% | 105% | 94.7% | 98.9% | 95.9% | 94.1% | 93.1% | 93.7% | 95.7% | 99.2% | 97% | 88.4% | 102% | 95.8% | 100% | 93.9% | 86.3% | 87% | 95.4% | 93.5% | 97.7% | 93.4% | 95.3%
Cc1cc(OCc2nnc(SC3CCCC3)n2-c2cccnc2)ccc1-c1ccc(S(C)(=O)=O)cc1 [NMS-873] | 0.175 µM | 1.96 µM | 1.85 µM | 2.19 µM | 1.64 µM | 19.7 | 8.1 | 7.1 | 7.5 | 7.3 | 107% | 96.2% | 61.6% | 19.7% | 1.5% | 97% | 98.5% | 91.1% | 84.6% | 0.2% | 88.8% | 93.1% | 92.1% | 85.3% | 16.2% | 105% | 102% | 107% | 88% | 0.3% | 102% | 101% | 83.6% | 77.7% | 17.8%
COC(=O)c1ccc2c(c1)NC(=O)/C2=C(\Nc1ccc(N(C)C(=O)CN2CCN(C)CC2)cc1)c1ccccc1 [nintedanib] | > 10 µM | > 10 µM | > 10 µM | > 10 µM | > 10 µM | 1.5 | 0 | 0 | 0 | 0 | 98.9% | 101% | 103% | 91.2% | 80.3% | 101% | 101% | 97.1% | 104% | 94% | 106% | 98% | 102% | 101% | 90.4% | 110% | 102% | 106% | 100% | 98.5% | 93.1% | 108% | 102% | 94.7% | 107%
COc1ccc(NS(=O)(=O)c2ccc(/N=N/c3ccc(O)c(C(=O)O)c3)cc2)nn1 [salazodine] | > 10 µM | > 10 µM | > 10 µM | > 10 µM | > 10 µM | 0 | 0 | 0 | 0 | 0 | 99.6% | 97.7% | 92.5% | 95.1% | 96.9% | 101% | 98% | 98.6% | 96.2% | 102% | 98% | 108% | 102% | 116% | 111% | 105% | 108% | 95.7% | 101% | 101% | 111% | 89.4% | 97.4% | 95.4% | 93.7%
c1ccc(CNc2ncnc3[nH]cnc23)cc1 [6-benzylaminopurine] | > 10 µM | > 10 µM | > 10 µM | > 10 µM | > 10 µM | 0 | 0 | 0 | 0 | 0 | 98.3% | 106% | 98.9% | 109% | 98.4% | 106% | 97.9% | 103% | 99.5% | 100% | 99.9% | 98.4% | 120% | 97.3% | 112% | 97.1% | 104% | 95.6% | 95% | 104% | 97% | 107% | 90.8% | 109% | 112%
Nc1ccn([C@H]2CO[C@@H](CO)S2)c(=O)n1 [apricitabine] | > 10 µM | > 10 µM | > 10 µM | > 10 µM | > 10 µM | 0 | 0 | 0 | 0 | 0 | 94.9% | 105% | 104% | 99.8% | 103% | 98.4% | 94.2% | 96.6% | 102% | 100% | 101% | 101% | 98.5% | 92.5% | 102% | 93.7% | 96.9% | 99.1% | 96.4% | 104% | 99.9% | 91.7% | 98.9% | 103% | 105%
Cc1cc2c(C(N)=O)cccc2n1-c1nc2c(c(NCc3ccccc3)n1)COCC2 [CB-5083] | 0.36 µM | 2.12 µM | 0.941 µM | 0.338 µM | 0.883 µM | 17.3 | 7.7 | 11.9 | 17.6 | 10.8 | 107% | 95% | 104% | 2.8% | -0.2% | 100% | 102% | 98.4% | 87.1% | -0.3% | 101% | 94.3% | 104% | 47.1% | 1.7% | 98.8% | 103% | 102% | 1.1% | -0.4% | 97.8% | 92.8% | 103% | 50.1% | 13.6%
COC(=O)[C@H](Cc1ccc([N+](=O)[O-])cc1)NC(=O)c1cccc2ccccc12 | > 10 µM | > 10 µM | > 10 µM | > 10 µM | > 10 µM | 0 | 0 | 0 | 0 | 0 | 102% | 97.1% | 105% | 101% | 107% | 94.2% | 99% | 96.6% | 99.5% | 100% | 101% | 95.8% | 92.8% | 100% | 109% | 94.4% | 96.7% | 90.8% | 87.4% | 101% | 99.8% | 98.7% | 99.4% | 95.6% | 89%
CC(C)(C)CC(C)(C)c1cc(Cc2cc(C(C)(C)CC(C)(C)C)cc(-n3nc4ccccc4n3)c2O)c(O)c(-n2nc3ccccc3n2)c1 [bisoctrizole] | > 10 µM | > 10 µM | > 10 µM | > 10 µM | > 10 µM | 0 | 0 | 0 | 0 | 0.1 | 98.6% | 108% | 97.5% | 98.6% | 105% | 96.8% | 99.7% | 95.5% | 99.5% | 94.4% | 88.8% | 99% | 90.8% | 105% | 103% | 103% | 101% | 96.5% | 98.1% | 101% | 98.6% | 99.3% | 97.1% | 98.9% | 87.7%
CC(C(=O)O)c1ccc(C(=O)c2cccs2)cc1 (stereo not given) [suprofen] | > 10 µM | > 10 µM | > 10 µM | > 10 µM | > 10 µM | 1.1 | 0 | 1.6 | 0 | 0 | 102% | 93.2% | 92.9% | 86.8% | 85.3% | 101% | 93.5% | 97.4% | 97% | 103% | 97.9% | 103% | 89% | 86.6% | 89.8% | 97.7% | 97.9% | 95.4% | 102% | 98.7% | 105% | 98% | 101% | 98% | 90.8%
